Measurements: ChEMBL document CHEMBL1833857, “Histone deacetylase activators: N-acetylthioureas serve as highly potent and isozyme selective activators for human histone deacetylase-8 on a fluorescent substrate” (Bioorg Med Chem Lett, 2011)
Calls of active or inactive are those of the source. The calls are words filed in the database; no cut-off is given here.

Assays:
[1] = molecular target: Histone deacetylase 4 (Homo sapiens) (UniProt P56524); experiment: Activation of HDAC4 using trifluoroacetyl-lysine containing fluorogenic substrate at 10 uM by spectrofluorometry
Histone deacetylase 4 (Homo sapiens), sequence (P56524 whole entry): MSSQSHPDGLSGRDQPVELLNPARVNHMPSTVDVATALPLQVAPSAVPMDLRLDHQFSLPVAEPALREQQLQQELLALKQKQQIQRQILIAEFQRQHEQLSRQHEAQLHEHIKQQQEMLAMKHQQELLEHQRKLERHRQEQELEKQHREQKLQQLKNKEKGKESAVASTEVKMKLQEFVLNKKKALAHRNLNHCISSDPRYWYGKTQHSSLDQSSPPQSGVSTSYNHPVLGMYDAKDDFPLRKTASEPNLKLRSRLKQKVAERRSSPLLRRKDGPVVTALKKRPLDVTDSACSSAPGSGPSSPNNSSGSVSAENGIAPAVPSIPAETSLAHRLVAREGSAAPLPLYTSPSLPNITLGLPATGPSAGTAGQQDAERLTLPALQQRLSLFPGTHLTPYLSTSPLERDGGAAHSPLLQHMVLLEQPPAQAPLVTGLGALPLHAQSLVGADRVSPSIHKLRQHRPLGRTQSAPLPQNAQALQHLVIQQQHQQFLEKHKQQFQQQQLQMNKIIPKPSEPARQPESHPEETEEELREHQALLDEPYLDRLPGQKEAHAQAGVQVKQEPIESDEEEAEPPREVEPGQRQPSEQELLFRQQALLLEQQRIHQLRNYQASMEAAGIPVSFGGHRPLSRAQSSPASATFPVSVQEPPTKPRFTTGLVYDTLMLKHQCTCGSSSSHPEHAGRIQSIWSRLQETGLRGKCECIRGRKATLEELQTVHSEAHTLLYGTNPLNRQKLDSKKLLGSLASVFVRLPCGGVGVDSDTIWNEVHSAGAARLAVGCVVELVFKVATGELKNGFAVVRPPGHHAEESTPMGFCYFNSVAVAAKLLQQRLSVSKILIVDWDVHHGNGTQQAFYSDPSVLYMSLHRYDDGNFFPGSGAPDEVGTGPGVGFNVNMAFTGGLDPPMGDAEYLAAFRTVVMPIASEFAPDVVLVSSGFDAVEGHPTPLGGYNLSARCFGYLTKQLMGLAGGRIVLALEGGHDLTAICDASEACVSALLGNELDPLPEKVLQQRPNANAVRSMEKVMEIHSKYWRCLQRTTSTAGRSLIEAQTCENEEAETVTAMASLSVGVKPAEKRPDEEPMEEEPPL

[2] = molecular target: Histone deacetylase 1 (Homo sapiens) (UniProt Q13547); experiment: Inhibition of HDAC1 using Fluor-de-Lys as substrate at 100 uM by spectrofluorometry
Histone deacetylase 1 (Homo sapiens), sequence (Q13547 whole entry): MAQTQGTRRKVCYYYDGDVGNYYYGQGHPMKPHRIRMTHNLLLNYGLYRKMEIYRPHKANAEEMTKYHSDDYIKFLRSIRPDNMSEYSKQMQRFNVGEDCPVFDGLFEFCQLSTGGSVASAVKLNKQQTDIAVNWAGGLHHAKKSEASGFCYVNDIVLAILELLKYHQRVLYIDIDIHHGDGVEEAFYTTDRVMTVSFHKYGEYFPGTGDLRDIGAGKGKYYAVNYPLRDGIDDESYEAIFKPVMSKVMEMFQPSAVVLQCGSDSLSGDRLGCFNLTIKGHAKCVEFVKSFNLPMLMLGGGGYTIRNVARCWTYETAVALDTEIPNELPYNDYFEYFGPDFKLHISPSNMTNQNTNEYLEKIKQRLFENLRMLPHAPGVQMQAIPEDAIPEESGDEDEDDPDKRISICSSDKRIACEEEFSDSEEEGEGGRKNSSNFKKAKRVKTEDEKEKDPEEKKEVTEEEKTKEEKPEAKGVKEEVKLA

[3] = molecular target: T1, Polyamine deacetylase HDAC10 (Homo sapiens) (UniProt Q969S8); experiment: Inhibition of HDAC10 using Fluor-de-Lys as substrate at 100 uM by spectrofluorometry
T1 sequence (whole entry): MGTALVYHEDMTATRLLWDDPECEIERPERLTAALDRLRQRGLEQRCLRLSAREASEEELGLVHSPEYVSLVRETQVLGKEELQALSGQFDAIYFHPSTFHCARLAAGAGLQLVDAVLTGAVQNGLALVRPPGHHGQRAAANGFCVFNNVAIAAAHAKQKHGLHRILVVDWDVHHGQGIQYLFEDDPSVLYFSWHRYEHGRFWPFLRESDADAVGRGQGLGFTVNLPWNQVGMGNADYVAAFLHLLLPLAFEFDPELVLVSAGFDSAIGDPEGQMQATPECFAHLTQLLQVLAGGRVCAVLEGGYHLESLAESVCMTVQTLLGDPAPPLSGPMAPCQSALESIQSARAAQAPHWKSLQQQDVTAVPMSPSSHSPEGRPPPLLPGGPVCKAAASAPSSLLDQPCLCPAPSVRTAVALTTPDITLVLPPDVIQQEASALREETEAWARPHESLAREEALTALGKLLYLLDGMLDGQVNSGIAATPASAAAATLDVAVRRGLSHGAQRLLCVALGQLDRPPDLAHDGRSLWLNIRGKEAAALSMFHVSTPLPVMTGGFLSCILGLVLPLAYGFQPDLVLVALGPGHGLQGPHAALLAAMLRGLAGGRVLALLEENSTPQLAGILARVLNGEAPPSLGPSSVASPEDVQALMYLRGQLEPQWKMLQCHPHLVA

[4] = molecular target: Histone deacetylase 3 (Homo sapiens) (UniProt O15379); experiment: Inhibition of HDAC3 using Fluor-de-Lys as substrate at 100 uM by spectrofluorometry
Histone deacetylase 3 (Homo sapiens), sequence (O15379 whole entry): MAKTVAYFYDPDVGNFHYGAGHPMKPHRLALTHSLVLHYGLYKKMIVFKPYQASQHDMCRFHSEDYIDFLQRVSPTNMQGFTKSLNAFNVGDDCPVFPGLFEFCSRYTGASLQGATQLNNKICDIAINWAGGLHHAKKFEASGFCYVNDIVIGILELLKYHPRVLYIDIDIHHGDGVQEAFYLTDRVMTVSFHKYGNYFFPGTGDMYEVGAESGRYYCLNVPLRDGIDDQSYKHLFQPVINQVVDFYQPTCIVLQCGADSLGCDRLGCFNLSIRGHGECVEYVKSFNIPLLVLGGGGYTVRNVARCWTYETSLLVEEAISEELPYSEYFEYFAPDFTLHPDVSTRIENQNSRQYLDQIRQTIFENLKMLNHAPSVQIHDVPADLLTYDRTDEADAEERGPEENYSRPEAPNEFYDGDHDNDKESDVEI

[5] = molecular target: T2, Histone deacetylase 11 (Homo sapiens) (UniProt Q96DB2); experiment: Inhibition of HDAC11 using Fluor-de-Lys as substrate at 100 uM by spectrofluorometry
T2 sequence (whole entry): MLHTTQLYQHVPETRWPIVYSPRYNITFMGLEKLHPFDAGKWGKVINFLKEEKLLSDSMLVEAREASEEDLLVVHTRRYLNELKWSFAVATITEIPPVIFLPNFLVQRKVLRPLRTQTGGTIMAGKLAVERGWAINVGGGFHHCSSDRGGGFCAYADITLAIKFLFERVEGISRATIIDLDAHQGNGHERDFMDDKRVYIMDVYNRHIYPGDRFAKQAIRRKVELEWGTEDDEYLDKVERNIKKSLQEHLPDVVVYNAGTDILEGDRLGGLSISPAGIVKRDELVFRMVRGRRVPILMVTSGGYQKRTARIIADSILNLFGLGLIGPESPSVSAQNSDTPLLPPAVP

[6] = molecular target: Histone deacetylase 1 (Homo sapiens) (UniProt Q13547); experiment: Activation of HDAC1 using Fluor-de-Lys as substrate at 10 uM by spectrofluorometry
[7] = molecular target: Histone deacetylase 4 (Homo sapiens) (UniProt P56524); experiment: Activation of HDAC4 using trifluoroacetyl-lysine containing fluorogenic substrate at 100 uM by spectrofluorometry
[8] = molecular target: T3, Histone deacetylase 8 (Homo sapiens) (UniProt Q9BY41); experiment: Activation of recombinant human HDAC8 assessed as ratio of the initial rate of reaction in the absence and presence of compound using Fluor-de-Lys as substrate at 10 uM by spectrofluorometry
T3 sequence (whole entry): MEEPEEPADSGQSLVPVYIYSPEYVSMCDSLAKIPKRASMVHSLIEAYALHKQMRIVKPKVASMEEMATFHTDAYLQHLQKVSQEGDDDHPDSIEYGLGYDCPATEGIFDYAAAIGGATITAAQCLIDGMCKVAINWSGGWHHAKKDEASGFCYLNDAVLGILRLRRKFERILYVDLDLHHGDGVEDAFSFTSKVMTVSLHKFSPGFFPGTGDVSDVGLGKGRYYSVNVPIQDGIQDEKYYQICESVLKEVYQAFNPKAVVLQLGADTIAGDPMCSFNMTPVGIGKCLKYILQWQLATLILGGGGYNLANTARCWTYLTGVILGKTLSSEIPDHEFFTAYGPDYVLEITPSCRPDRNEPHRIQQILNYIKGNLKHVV

[9] = molecular target: Histone deacetylase 2 (Homo sapiens) (UniProt Q92769); experiment: Inhibition of HDAC2 using Fluor-de-Lys as substrate at 100 uM by spectrofluorometry
Histone deacetylase 2 (Homo sapiens), sequence (Q92769 whole entry): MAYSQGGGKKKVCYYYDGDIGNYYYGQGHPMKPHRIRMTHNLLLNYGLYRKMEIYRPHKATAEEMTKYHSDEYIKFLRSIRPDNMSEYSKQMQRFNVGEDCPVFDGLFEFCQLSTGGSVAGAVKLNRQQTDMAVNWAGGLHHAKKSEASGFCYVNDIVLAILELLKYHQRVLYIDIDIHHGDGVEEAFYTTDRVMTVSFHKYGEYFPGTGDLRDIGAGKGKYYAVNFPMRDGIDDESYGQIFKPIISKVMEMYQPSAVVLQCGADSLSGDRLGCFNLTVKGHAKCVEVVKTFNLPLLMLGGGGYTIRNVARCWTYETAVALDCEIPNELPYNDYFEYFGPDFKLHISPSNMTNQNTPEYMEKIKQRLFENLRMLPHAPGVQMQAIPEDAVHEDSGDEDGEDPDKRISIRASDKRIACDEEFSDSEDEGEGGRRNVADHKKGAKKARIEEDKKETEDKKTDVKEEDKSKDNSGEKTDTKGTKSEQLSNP

[10] = molecular target: Histone deacetylase 1 (Homo sapiens) (UniProt Q13547); experiment: Activation of HDAC1 using Fluor-de-Lys as substrate at 100 uM by spectrofluorometry
[11] = molecular target: Histone deacetylase 4 (Homo sapiens) (UniProt P56524); experiment: Inhibition of HDAC4 using trifluoroacetyl-lysine containing fluorogenic substrate at 100 uM by spectrofluorometry
[12] = molecular target: T4, Protein deacetylase HDAC6 (Homo sapiens) (UniProt Q9UBN7); experiment: Inhibition of HDAC6 using Fluor-de-Lys as substrate at 100 uM by spectrofluorometry
T4 sequence (whole entry): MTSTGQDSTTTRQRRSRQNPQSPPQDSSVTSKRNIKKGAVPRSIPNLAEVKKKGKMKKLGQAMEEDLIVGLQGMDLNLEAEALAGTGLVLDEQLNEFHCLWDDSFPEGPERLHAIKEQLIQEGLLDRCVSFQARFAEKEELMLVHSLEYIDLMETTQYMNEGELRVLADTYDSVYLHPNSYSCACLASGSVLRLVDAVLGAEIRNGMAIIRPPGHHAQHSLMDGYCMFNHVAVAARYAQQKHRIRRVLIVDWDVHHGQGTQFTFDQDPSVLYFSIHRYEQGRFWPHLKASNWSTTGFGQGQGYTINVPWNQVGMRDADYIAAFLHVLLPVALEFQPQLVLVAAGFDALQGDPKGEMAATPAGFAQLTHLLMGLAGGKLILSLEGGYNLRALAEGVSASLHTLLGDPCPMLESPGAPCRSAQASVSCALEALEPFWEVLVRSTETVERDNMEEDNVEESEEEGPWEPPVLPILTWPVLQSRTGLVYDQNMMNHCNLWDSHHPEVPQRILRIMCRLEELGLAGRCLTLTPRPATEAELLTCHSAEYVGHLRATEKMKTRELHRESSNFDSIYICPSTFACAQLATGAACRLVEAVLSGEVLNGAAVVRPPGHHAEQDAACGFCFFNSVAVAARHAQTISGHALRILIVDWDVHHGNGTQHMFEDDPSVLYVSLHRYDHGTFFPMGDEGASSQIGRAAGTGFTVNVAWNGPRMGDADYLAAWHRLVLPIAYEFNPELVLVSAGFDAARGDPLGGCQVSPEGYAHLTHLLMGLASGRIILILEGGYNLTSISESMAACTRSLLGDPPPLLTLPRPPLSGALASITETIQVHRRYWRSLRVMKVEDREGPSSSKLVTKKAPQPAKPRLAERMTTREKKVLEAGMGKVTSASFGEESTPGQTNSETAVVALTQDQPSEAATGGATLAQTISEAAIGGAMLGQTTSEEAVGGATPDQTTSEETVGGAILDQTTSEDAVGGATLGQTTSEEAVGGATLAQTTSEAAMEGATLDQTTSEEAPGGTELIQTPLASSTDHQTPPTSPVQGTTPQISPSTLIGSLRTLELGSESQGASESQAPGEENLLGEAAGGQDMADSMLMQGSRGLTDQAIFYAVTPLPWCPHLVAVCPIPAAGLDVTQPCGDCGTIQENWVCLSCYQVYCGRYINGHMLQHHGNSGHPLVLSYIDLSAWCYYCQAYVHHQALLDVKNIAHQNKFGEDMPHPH

[13] = molecular target: T4, Protein deacetylase HDAC6 (Homo sapiens); experiment: Activation of HDAC6 using Fluor-de-Lys as substrate at 100 uM by spectrofluorometry
[14] = molecular target: T1, Polyamine deacetylase HDAC10 (Homo sapiens); experiment: Activation of HDAC10 using Fluor-de-Lys as substrate at 10 uM by spectrofluorometry
[15] = molecular target: Histone deacetylase 3 (Homo sapiens) (UniProt O15379); experiment: Activation of HDAC3 using Fluor-de-Lys as substrate at 100 uM by spectrofluorometry
[16] = molecular target: T1, Polyamine deacetylase HDAC10 (Homo sapiens); experiment: Activation of HDAC10 using Fluor-de-Lys as substrate at 100 uM by spectrofluorometry
[17] = molecular target: Histone deacetylase 3 (Homo sapiens) (UniProt O15379); experiment: Activation of HDAC3 using Fluor-de-Lys as substrate at 10 uM by spectrofluorometry
[18] = molecular target: Histone deacetylase 2 (Homo sapiens) (UniProt Q92769); experiment: Activation of HDAC2 using Fluor-de-Lys as substrate at 100 uM by spectrofluorometry
[19] = molecular target: T4, Protein deacetylase HDAC6 (Homo sapiens); experiment: Activation of HDAC6 using Fluor-de-Lys as substrate at 10 uM by spectrofluorometry
[20] = molecular target: Histone deacetylase 2 (Homo sapiens) (UniProt Q92769); experiment: Activation of HDAC2 using Fluor-de-Lys as substrate at 10 uM by spectrofluorometry

Row | Activity [1] | inhibition [2] | inhibition [3] | inhibition [4] | inhibition [5] [%] | Activity [6] | Activity [7] | fold change (FC) [8] | inhibition [9] | Activity [10] | inhibition [11] | inhibition [12] | Activity [13] | Activity [14] | Activity [15] | Activity [16] | Activity [17] | Activity [18] | Activity [19] | Activity [20] | Compound
1 | inactive | inactive | 10% | 5% | 10 | inactive | inactive | 8.4 | 6% | inactive | inactive | 5% | – | – | – | – | – | – | – | – | COc1cc(NC(=S)NC(=O)c2ccccc2)cc(OC)c1
2 | inactive | 5% | inactive | inactive | 6 | – | inactive | 3 | inactive | – | inactive | inactive | inactive | inactive | inactive | inactive | inactive | inactive | inactive | inactive | O=C(NC(=S)NCc1ccc(F)cc1)c1ccccc1
3 | inactive | inactive | 10% | inactive | 10 | inactive | inactive | 4.5 | 5% | inactive | inactive | inactive | inactive | – | inactive | – | inactive | – | inactive | – | C[C@H](NC(=S)NC(=O)c1ccccc1)c1ccccc1
4 | inactive | inactive | 10% | inactive | 10 | inactive | inactive | 1.1 | inactive | inactive | inactive | 10% | – | – | inactive | – | inactive | inactive | – | inactive | O=C(NC(=S)NCc1cc(C(F)(F)F)cc(C(F)(F)F)c1)c1ccccc1
5 | inactive | inactive | 5% | inactive | 10 | inactive | inactive | 1.1 | 10% | inactive | inactive | inactive | inactive | – | inactive | – | inactive | – | inactive | – | O=C(NC(=S)NCc1ccc(-c2ccccc2)cc1)c1ccccc1
6 | inactive | inactive | 5% | inactive | 14 | inactive | inactive | 1 | inactive | inactive | inactive | inactive | inactive | – | inactive | – | inactive | inactive | inactive | inactive | O=C(NC(=S)NCc1ccccc1)c1ccccc1F
7 | inactive | – | 5% | 6% | 8 | inactive | inactive | 1.5 | 6% | 4% | inactive | 45% | – | – | – | – | – | – | – | – | C[C@@H](NC(=S)NC(=O)c1ccccc1)c1ccccc1
8 | inactive | inactive | 47% | 5% | 12 | inactive | inactive | 3 | 9% | inactive | inactive | 10% | – | – | – | – | – | – | – | – | O=C(NC(=S)NCc1cccs1)c1ccccc1
